Results on 28 compounds are retold here after US8586755B2, “Substituted nicotinamides as KCNQ2/3 modulators” (Grünenthal GmbH, priority 2009, dated 2013).

A word on the EC50: it is the concentration giving half of the maximal effect. Lower therefore signals an effect from little substance.

This test has as its target T1, KCNQ2/3 channels (Homo sapiens, UniProt O43525+O43526).
T1 construct: expressed in transfected cells
Briefly: Fluorescence assay using a voltage sensitive dye (fluorimetry). Format: cell-based. The note with it: CHO-K1 cells expressing KCNQ2/3 channels; for EC50: agonistic activity; for Fluorimetry % efficacy (retigabine 50 μM = 100%) / Emax: retigabine 50 μM = 100%; for Emax: read-out: Fluorimetry % efficacy (retigabine 50 μM = 100%). On the procedure:
Pharmacological Experiments Fluorescence Assay Using a Voltage Sensitive Dye
Human CHO-K1 cells expressing KCNQ2/3 channels are cultivated adherently at 37° C., 5% CO2 and 95% humidity in cell culture bottles (e.g. 80 cm^2 TC flasks, Nunc) with DMEM-high glucose (Sigma Aldrich, D7777) including 10% FCS (PAN Biotech, e.g. 3302-P270521) or alternatively MEM Alpha Medium (1×, liquid, Invitrogen, #22571), 10% fetal calf serum (FCS) (Invitrogen, #10270-106, heat-inactivated) and the necessary selection antibiotics.
Before being sown out for the measurements, the cells are washed with a 1×DPBS buffer without Ca^2+/Mg^2+ (e.g. Invitrogen, #14190-094) and detached from the bottom of the culture vessel by means of Accutase (PAA Laboratories, #L11-007) (incubation with Accutase for 15 min at 37° C.). The cell count then present is determined using a CASY™ cell counter (TCC model, Schärfe System) in order subsequently to apply, depending on the density optimization for the individual cell line, 20,000-30,000 cells/well/100 μl of the described nutrient medium to 96-well measuring plates of the Corning™ CellBIND™ type (Flat Clear Bottom Black Polystyrene Microplates, #3340). Incubation is then carried out for one hour at room temperature, without gassing or adjusting the humidity, followed by incubation for 24 hours at 37° C., 5% CO2 and 95% humidity.
The voltage-sensitive fluorescent dye from the Membrane Potential Assay Kit (Red™ Bulk format part R8123 for FLIPR, MDS Analytical Technologies™) is prepared by dissolving the contents of a vessel Membrane Potential Assay Kit Red Component A in 200 ml of extracellular buffer (ES buffer, 120 mM NaCl, 1 mM KCl, 10 mM HEPES, 2 mM CaCl2, 2 mM MgCl2, 10 mM glucose; pH 7.4). After removal of the nutrient medium, the cells are washed with 200 μl of ES buffer, then covered with a layer of 100 μl of the dye solution prepared above and incubated for 45 min at room temperature with the exclusion of light.
The fluorescence measurements are carried out with a BMG Labtech FLUOstar™ BMG Labtech NOVOstar™ or BMG Labtech POLARstar™ instrument (525 nm excitation, 560 nm emission, Bottom Read mode). After incubation of the dye, 50 μl of the test substances in the desired concentrations, or 50 μl of ES buffer for control purposes, are introduced into separate cavities of the measuring plate and incubated for 30 min at room temperature while being shielded from light. The fluorescence intensity of the dye is then measured for 5 min and the fluorescence value F1 of each well is thus determined at a given, constant time. 15 μl of a […] KCl solution ([…]) are then added to each well. The change in fluorescence is subsequently measured until all the relevant measured values have been obtained (mainly 5-30 min). At a given time after KCl application, a fluorescence value F2 is determined, in this case at the time of the fluorescence peak.
For calculation, the fluorescence intensity F2 is compared with the fluorescence intensity F1, and the agonistic activity of the target compound on the potassium channel is determined therefrom. F2 and F1 are calculated as follows: […]
In order to determine whether a substance has agonistic activity,
A substance has an agonistic activity on the potassium channel when
[formula] it is possible to conclude that a target compound has agonistic activity if an increase in
[formula] is to be observed as the dosage of the target compound increases.
Calculations of EC50 values are carried out with the aid of ‘Prism v4.0’ software (GraphPad Software™).

For the compound `O=C(NCc1cccs1)c1cccnc1SCCCc1ccccc1` [compound 1], the concentration for a half-maximal effect (EC50) is 170 nM and the “Fluorimetry % efficacy (retigabine 50 μM = 100%)” value (from here on “Fluorimetry % efficacy”) is recorded as 132%. With `O=C(NCc1cccs1)c1cccnc1SCCCC1CCCCC1` [compound 2, 2-(3-Cyclohexyl-propylsulfanyl)-N-(thiophen-2-yl-methyl)-pyridine-3-carboxylic acid amide], a half-maximal response (EC50) required 1350 nM and the Emax is 97%. Regarding `O=C(CCSc1ncccc1C(=O)NCc1cccs1)c1ccccc1` [compound 3], the “Fluorimetry % efficacy” value was determined as 53%. In the case of `O=C(NCc1cccs1)c1cccnc1SCCOc1cccc(C(F)(F)F)c1` [compound 4, N-(Thiophen-2-yl-methyl)-2-[2-[3-(trifluoromethyl)-phenoxy]-ethylsulfanyl]-pyridine-3-carboxylic acid amide], a half-maximal effect (EC50) was put at 772 nM and the Emax came to 126%. For `CC(C)CCCSc1ncccc1C(=O)NCc1cccs1` [compound 5, 2-(4-Methyl-pentylsulfanyl)-N-(thiophen-2-yl-methyl)-pyridine-3-carboxylic acid amide], in that order: 435 nM and 161%. Take `O=C(NCc1cccs1)c1cccnc1CCCCc1ccccc1` [compound 7, 2-(4-Phenyl-butyl)-N-(thiophen-2-yl-methyl)-pyridine-3-carboxylic acid amide]: the Emax amounted to 91%. On to `O=C(NCC1CCCCC1)c1cccnc1CCCS(=O)(=O)c1ccccc1` [compound 8, 2-[3-(Benzenesulfonyl)-propyl]-N-(cyclohexyl-methyl)-pyridine-3-carboxylic acid amide], for which the Emax worked out at 37%. Take `O=C(NCC1CCCCC1)c1cccnc1CCCCc1ccccc1` [compound 9, N-(Cyclohexyl-methyl)-2-(4-phenyl-butyl)-pyridine-3-carboxylic acid amide]: the EC50 was 1350 nM and the Emax worked out at 157%. On to `O=C(NCc1cccs1)c1cccnc1CCCS(=O)(=O)c1ccccc1` [compound 10, 2-[3-(Benzenesulfonyl)-propyl]-N-(thiophen-2-yl-methyl)-pyridine-3-carboxylic acid amide], for which the Emax was found to be 13%. Consider `O=C(NCc1cccs1)c1cccnc1CCCS(=O)(=O)c1cccc(C(F)(F)F)c1` [compound 12, N-(Thiophen-2-yl-methyl)-2-[3-[[3-(trifluoromethyl)phenyl]sulfonyl]-propyl]-pyridine-3-carboxylic acid amide], for which the response was half-maximal at 2920 nM (EC50) and the Emax turned out to be 170%. On to `O=C(NCc1cccs1)c1cccnc1CCCSc1cccc(C(F)(F)F)c1` [compound 13], for which the half-maximal effective concentration (EC50) was 302 nM and the “Fluorimetry % efficacy” value stood at 200%.

For the compound `CC(CSc1ncccc1C(=O)NCc1cccs1)Sc1ccccc1` (stereo not shown) [compound 16], the EC50 was found to be 74 nM and the Emax came to 176%.

As for `O=C(NCc1cccs1)c1cccnc1SCCCc1ccc(F)cc1` [compound 17], the response was half-maximal at 128 nM (EC50) and the “Fluorimetry % efficacy” value was determined as 176%.

Turning to `O=C(NCc1cccs1)c1cccnc1SCCCc1cccc(C(F)(F)F)c1` [compound 18, N-(Thiophen-2-yl-methyl)-2-[3-[3-(trifluoromethyl)phenyl]-propylsulfanyl]-pyridine-3-carboxylic acid amide], it took 111 nM to reach a half-maximal effect (EC50) and the Emax came to 160%.

On to `CC(CSc1ncccc1C(=O)NCc1cccs1)Sc1ccc(F)cc1` (stereo not shown) [compound 19, 2-[2-[(4-Fluorophenyl)sulfanyl]-propylsulfanyl]-N-(thiophen-2-yl-methyl)-pyridine-3-carboxylic acid amide], for which the response was half-maximal at 37 nM (EC50) and the Emax is 171%. For `CC(CSc1ncccc1C(=O)NCc1cccs1)Sc1cccc(C(F)(F)F)c1` (stereo not shown) [compound 20, N-(Thiophen-2-yl-methyl)-2-[2-[[3-(trifluoromethyl)phenyl]sulfanyl]-propylsulfanyl]-pyridine-3-carboxylic acid amide] the same measures were 49 nM and 174%.

Turning to `O=C(NCc1cccs1)c1cccnc1CCCCc1cccc(C(F)(F)F)c1` [compound 21], the EC50 worked out at 364 nM and the “Fluorimetry % efficacy” value is given as 126%.

Consider `O=C(NCc1cccs1)c1cccnc1CCCCc1ccc(F)cc1` [compound 22, 2-[4-(4-Fluorophenyl)-butyl]-N-(thiophen-2-yl-methyl)-pyridine-3-carboxylic acid amide], for which the concentration giving a half-maximal response (EC50) was determined as 2350 nM and the Emax was 150%. For `O=C(NCc1cccs1)c1cccnc1CCCSc1ccccc1` [compound 23, 2-(3-Phenylsulfanyl-propyl)-N-(thiophen-2-yl-methyl)-pyridine-3-carboxylic acid amide] the same measures were 3770 nM and 163%. For `CC(CSc1ccccc1)Sc1ncccc1C(=O)NCc1cccs1` (stereo not shown) [compound 24, 2-[(1-Methyl-2-phenylsulfanyl-ethyl)sulfanyl]-N-(thiophen-2-yl-methyl)-pyridine-3-carboxylic acid amide], in that order: 11 nM and 122%. For `O=C(NCC1CCCCCC1)c1cccnc1CCCCc1cccc(C(F)(F)F)c1` [compound 25, N-(Cycloheptyl-methyl)-2-[4-[3-(trifluoromethyl)phenyl]-butyl]-pyridine-3-carboxylic acid amide], in that order: 1020 nM and 216%. Consider `O=C(NCC1CC2CCC1C2)c1cccnc1CCCCc1cccc(C(F)(F)F)c1` (stereo not shown) [compound 26, N-(5-Bicyclo[2.2.1]heptanyl-methyl)-2-[4-[3-(trifluoromethyl)phenyl]-butyl]-pyridine-3-carboxylic acid amide], for which it took 126 nM to reach a half-maximal effect (EC50) and the Emax worked out at 244%.

Consider `CC(C)CCCSc1ncccc1C(=O)NCC1CC2CCC1C2` (stereo not shown) [compound 28, N-(5-Bicyclo[2.2.1]heptanyl-methyl)-2-(4-methyl-pentylsulfanyl)-pyridine-3-carboxylic acid amide], for which a half-maximal response (EC50) required 1570 nM and the Emax amounted to 192%. On to `O=C(NCC1CCCCCC1)c1cccnc1CCCSc1ccc(F)cc1` [compound 29, N-(Cycloheptyl-methyl)-2-[3-[(4-fluorophenyl)sulfanyl]-propyl]-pyridine-3-carboxylic acid amide], for which the concentration for a half-maximal effect (EC50) was found to be 275 nM and the Emax worked out at 159%. For `O=C(NCC1CC2CCC1C2)c1cccnc1CCCSc1ccc(F)cc1` (stereo not shown) [compound 30, N-(5-Bicyclo[2.2.1]heptanyl-methyl)-2-[3-[(4-fluorophenyl)sulfanyl]-propyl]-pyridine-3-carboxylic acid amide] the same measures were 630 nM and 261%. For `O=C(NCC1CCCCCC1)c1cccnc1CCCS(=O)(=O)c1cccc(C(F)(F)F)c1` [compound 31, N-(Cycloheptyl-methyl)-2-[3-[[3-(trifluoromethyl)phenyl]sulfonyl]-propyl]-pyridine-3-carboxylic acid amide] the same measures were 437 nM and 98%. For `O=C(NCC1CC2CCC1C2)c1cccnc1CCCS(=O)(=O)c1cccc(C(F)(F)F)c1` (stereo not shown) [compound 32, N-(5-Bicyclo[2.2.1]heptanyl-methyl)-2-[3-[[3-(trifluoromethyl)phenyl]sulfonyl]-propyl]-pyridine-3-carboxylic acid amide] the same measures were 3130 nM and 191%.

As to `O=C(NCC1CC2CCC1C2)c1cccnc1SCCCc1ccccc1` (stereo not shown) [compound 33, N-(5-Bicyclo[2.2.1]heptanyl-methyl)-2-(3-phenyl-propylsulfanyl)-pyridine-3-carboxylic acid amide], a half-maximal effect (EC50) was put at 451 nM and the Emax is 242%.
